# How the values were obtained:
# [1] = comparison of mefipristone, ZK 98.299 (II), ZK 98.734 (III); cited from earlier work
# [2] = tested on: estrogen-insensitive T47Dco human breast cancer cells; conditions: Horwitz 1985; cited from earlier work
# [3] = tested on: endometrial response due to subcutaneous administration of progesterone; assay: Anti-McGinty intrauterine antiprogestational test; assay type: in vivo, estrogen-primed immature female rabbits; conditions: intrauterine
# Description: The antiprogestational activity of the compounds was studied after both intrauterine and oral administration. In each case the compound was tested for its ability to inhibit the endometrial response due to subcutaneous administration of progesterone to estrogen-primed immature female rabbits. The methodology used for the intrauterine test has been described by D. A. McGinty et al. See Endocrinology, 24, 829 (1939). For oral administration of test compounds, the method used was analogous to that of Clauberg. See Clauberg, Zentr. Gynakol., 54, 2757 (1930) as modified by McPhail J. Physiol. (London), 83, 145 (1935). Each active compound was characterized by a dose-related ability to block the progestational effect of simultaneously administered progesterone. When the percent inhibition was plotted versus the log of the dose, linear relationships were obtained. Linear regression analysis permitted calculation of the ED50 and ED90 values (the doses required for 50% and 90% inhibition of the progesterone effect, respectively). The actual dose which gave 90% or more inhibition is also given, although this value is probably less accurate than the calculated values which are based on the dose-response line. […] Since the intrauterine administration bypasses most of the drug-metabolizing systems of the body, especially the liver, intrinsic activity is expected to correlate reasonably well with binding activity to the receptor, according to currently held hypotheses regarding receptor binding.
# Cushing's syndrome = conditions: cited from earlier work
# glucocorticoid receptor = biological target: T1, glucocorticoid receptor (Rattus norvegicus, UniProt P06536); assay: Relative binding affinity to glucocorticoid receptor of thymus (displacement of tritium-labeled dexamethasone); design: species or system rat (adrenalectomized); conditions: relative to dexamethasone (=100)
# T1 construct: glucocorticoid receptor from thymus of adrenalectomized rats; from tissue; host or cells: thymus of adrenalectomized rats
# T1 sequence (P06536 1-795): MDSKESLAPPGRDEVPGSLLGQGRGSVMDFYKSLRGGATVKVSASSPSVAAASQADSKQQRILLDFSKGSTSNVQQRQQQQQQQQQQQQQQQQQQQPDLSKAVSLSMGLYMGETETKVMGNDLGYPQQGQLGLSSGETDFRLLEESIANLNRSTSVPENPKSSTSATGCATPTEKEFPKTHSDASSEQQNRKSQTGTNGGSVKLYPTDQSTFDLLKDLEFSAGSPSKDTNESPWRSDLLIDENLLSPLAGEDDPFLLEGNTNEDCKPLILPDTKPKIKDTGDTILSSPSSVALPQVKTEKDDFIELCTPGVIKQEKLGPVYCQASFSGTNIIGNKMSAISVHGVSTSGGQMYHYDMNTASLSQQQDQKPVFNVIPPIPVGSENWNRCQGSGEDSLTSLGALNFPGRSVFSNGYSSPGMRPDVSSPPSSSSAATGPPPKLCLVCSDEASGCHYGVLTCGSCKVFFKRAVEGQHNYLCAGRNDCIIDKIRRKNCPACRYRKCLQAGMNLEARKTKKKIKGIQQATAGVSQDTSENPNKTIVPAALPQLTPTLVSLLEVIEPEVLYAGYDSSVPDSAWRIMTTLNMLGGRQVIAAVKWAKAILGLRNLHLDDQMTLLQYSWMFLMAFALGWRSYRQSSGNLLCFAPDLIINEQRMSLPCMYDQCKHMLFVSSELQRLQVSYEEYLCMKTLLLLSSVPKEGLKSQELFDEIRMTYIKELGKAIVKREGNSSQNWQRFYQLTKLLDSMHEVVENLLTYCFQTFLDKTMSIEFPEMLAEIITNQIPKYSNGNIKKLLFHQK
# Description: (§1) The in vitro activity of the subject compounds was determined by measuring the binding affinities (RBA) of these compounds relative to progesterone for the progesterone receptor in the cytosol obtained from estrogen-primedimmature rabbit uterus and by measuring the RBA relative to dexamethasone for the glucocorticoid receptor from thymus of adrenalectomized rats. These assays were carried out by the procedures of J. R. Reel et al., Fertility and Sterility, 31, 552 (1979) (progesterone) and G. P. Chrousos et al., Endocrinology, 107, 472 (1980) (glucocorticoid).
# ^b Relative ability to displace tritiumlabeled dexamethasone from the
# receptor of the thymus of adrenalectomized rats as compared to […]
# progesterone receptor = biological target: T2, progesterone receptor (Oryctolagus cuniculus, UniProt P06186); assay: Relative binding affinity to progesterone receptor in uterine cytosol (displacement of tritium-labeled progesterone); design: species or system rabbit (estrogen-primed immature female)
# T2 construct: in the cytosol obtained from estrogen-primedimmature rabbit uterus; from tissue; host or cells: uterine cytosol of estrogen-primed immature female rabbits
# T2 sequence (P06186 1-930): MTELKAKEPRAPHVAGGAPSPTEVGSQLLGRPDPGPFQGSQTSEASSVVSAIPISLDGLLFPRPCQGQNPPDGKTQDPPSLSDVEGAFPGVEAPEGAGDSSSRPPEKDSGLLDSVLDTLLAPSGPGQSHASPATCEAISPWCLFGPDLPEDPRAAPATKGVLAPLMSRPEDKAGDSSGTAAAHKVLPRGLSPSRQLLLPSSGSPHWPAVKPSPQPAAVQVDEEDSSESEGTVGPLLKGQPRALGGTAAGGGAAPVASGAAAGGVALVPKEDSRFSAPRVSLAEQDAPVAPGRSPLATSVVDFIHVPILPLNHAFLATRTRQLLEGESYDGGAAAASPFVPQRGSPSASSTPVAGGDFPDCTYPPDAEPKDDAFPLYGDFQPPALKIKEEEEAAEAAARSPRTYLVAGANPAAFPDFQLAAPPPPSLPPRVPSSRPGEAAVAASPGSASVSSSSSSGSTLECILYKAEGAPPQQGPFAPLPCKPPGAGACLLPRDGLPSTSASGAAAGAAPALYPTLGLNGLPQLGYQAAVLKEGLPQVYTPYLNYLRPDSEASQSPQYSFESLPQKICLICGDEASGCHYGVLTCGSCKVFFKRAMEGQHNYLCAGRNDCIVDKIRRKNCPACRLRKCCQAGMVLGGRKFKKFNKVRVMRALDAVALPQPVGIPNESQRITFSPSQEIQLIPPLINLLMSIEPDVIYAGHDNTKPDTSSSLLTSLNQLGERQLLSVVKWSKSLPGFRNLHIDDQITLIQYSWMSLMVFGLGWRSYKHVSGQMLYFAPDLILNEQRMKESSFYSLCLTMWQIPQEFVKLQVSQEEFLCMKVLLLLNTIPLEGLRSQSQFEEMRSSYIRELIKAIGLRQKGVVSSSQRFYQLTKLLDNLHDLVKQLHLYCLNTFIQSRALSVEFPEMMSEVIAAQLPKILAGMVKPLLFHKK
# Description: as §1
# ^a Relative ability to displace tritiumlabeled progesterone from the
# receptor in uterine cytosol from estrogenprimed immature female rabbits a
# compared with progesterone (=100).
# [4] = tested on: endometrial proliferation (McPhail Index); assay: Progestational activity, intrauterine (McGinty assay); assay type: in vivo, estrogen-primed immature female rabbits; conditions: right horn control 0
# Description: In this assay estrogen-primed immature female rabbits are treated by injection of the test compound into the left horn of the uterus while the right horn is left untreated as a control. Each horn is then scored for endometrial proliferation by the McPhail Index. […] It indicates a possible need for reassessment of the current hypotheses regarding the effect of this substituent on antagonist versus agonist activity.
# [5] = from % Inhib = a + b · ln dose, results variable, data from "best run"
smiles,measurement,setting,value
CN(C)c1ccc(C2CC3(C)C(CCC3(O)CCCO)C3CCC4=CC(=O)CCC4=C23)cc1 (stereo not drawn) [ZK 98.299],antiglucocorticoid activity relative to antigestagenic potency (rank),[1],intermediate position
"CC#C[C@]1(O)CC[C@H]2[C@@H]3CCC4=CC(=O)CCC4=C3[C@@H](c3ccc(N(C)C)cc3)C[C@@]21C [RU-486, reference compound]",growth-inhibitory properties,[2],exhibits growth-inhibitory properties
same,ED90 (actual dose),"[3]; actual dose giving ≥ 90% inhibition, results variable, data from ""best run""",1.0 µg
same,ED50,[3]; [5],0.28 µg
same,ED90 (calculated),[3]; [5],0.87 µg
same,treatment of Cushing's syndrome,Cushing's syndrome; Nieman et al,successfully used
same,antiglucocorticoid activity,Cushing's syndrome; in vivo,very significant antiglucocorticoid activity
CN(C)c1ccc([C@H]2C[C@@]3(C)[C@@H](CC[C@@]3(O)/C=C\CO)[C@@H]3CCC4=CC(=O)CCC4=C32)cc1 [ZK 98.734],antiglucocorticoid activity relative to antigestagenic potency (rank),[1],least active
"CC[C@@H]1C[C@H]2[C@@H]3CCC4=CC(=O)CCC4=C3[C@@H](c3ccc(N(C)C)cc3)C[C@]2(C)[C@H]1C(C)=O [Compound 19, 16α-Ethyl-118-(4-N,N-dimethylaminophenyl)-19-norpregna-4,9-diene-3,20-dione]",Glucocort. RBA,glucocorticoid receptor,124
same,ED90 (actual dose),[3]; footnote c: no inhibition at tested dose,< 80 µg
same,P-RBA/G-RBA,progesterone receptor; ratio of RBA values for progesterone receptor to glucocorticoid receptor,0.65
same,Progestin RBA,"progesterone receptor; relative to progesterone (=100), rabbit uterine cytosol",80
same,"McPhail Index, Left Horn (Treated)",[4]; dose 2.0 μg intrauterine,3.0 ± 0.32
same,"McPhail Index, Left Horn (Treated)",[4]; dose 4.0 μg intrauterine,3.7 ± 0.12
same,"McPhail Index, Left Horn (Treated)",[4]; dose 8.0 μg intrauterine,3.6 ± 0.10
